Experimental data as given in patent publication US11613533B2, “Compounds useful for inhibiting RET kinase” (Eli Lilly and Company, priority 2020, dated 2023).
Substitutions are numbered along the chain they refer to.

Assays:
[1] = molecular target: T1, KIF5B-RET WT in HEK293 cells (Homo sapiens, UniProt P07949); experiment: RET cell assay (In-Cell Western, phospho-RET Y1062), wildtype; assay type: cell-based; conditions: HEK293, doxycycline-induced KIF5B-RET WT, 1 hr compound treatment; read-out: EC50, inhibition of intracellular autophosphorylation of RET at tyrosine 1062, wildtype cells
T1 construct: expressed in transfected cells; host or cells: HEK293; the other entry of the earlier key: KIF5B (P33176, Kinesin-1 heavy chain)
T1 sequence (P07949 713-1063 limits assumed): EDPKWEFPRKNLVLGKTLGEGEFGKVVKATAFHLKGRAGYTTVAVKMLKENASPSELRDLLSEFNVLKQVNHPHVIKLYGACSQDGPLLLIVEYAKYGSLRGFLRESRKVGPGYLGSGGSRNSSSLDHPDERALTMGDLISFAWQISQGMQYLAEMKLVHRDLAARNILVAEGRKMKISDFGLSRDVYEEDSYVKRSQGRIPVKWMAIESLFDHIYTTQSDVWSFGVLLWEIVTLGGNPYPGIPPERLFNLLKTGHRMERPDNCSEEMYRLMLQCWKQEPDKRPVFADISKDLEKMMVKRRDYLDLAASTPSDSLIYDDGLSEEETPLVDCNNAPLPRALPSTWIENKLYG
Description: (§1) Compounds of formulas (I), (II), and (III) are screened for their ability to inhibit the intracellular autophosphorylation of RET at tyrosine 1062 as detected by In-Cell Western. HEK293 cells containing a doxycycline-inducible plasmid for inducible expression of KIF5B-RET WT and RET mutant forms V804M and G810S are seeded at 25,000 cells/well into black poly-D-lysine pre-coated 384-well plates (Corning, Catalog No. 356697). Expression of KIF5B-RET is induced with doxycycline at 1 μg/mL and cells are incubated at 37° C. overnight. Compounds are prepared in a threefold serial dilution in DMSO before further diluting 1:100 in media prior to the addition to the cells (0.1% final DMSO concentration). Compound treatment is performed for 1 hr at 37° C. followed by fixation of cells with 4% formaldehyde for 20 min at RT and cell permeabilisation with ice-cold MeOH for 10 min at RT. Cells are incubated with Intercept® blocking buffer (Li—COR, Catalogue No. 927-70010) for 1 hr at RT. Incubation with primary antibodies against human phospho-RET (Y1062) (R&D, Catalogue No. AF5009, 1/250 dilution) and human glyceraldehyde-3-phosphate dehydrogenase (clone 6C5, Merck, Catalog No. MAB374, 1/1000 dilution) are performed overnight at 4° C. Incubation with secondary antibodies IRDye® 800CW goat anti-rabbit IgG (Li—COR, Catalogue No. 926-32211, 1/1000 dilution) and IRDye® 680CW goat anti-mouse IgG (Li—COR, Catalogue No. 926-68070, 1/1000 dilution) are performed for 1 hr at RT. All antibody dilutions are done in Intercept® blocking buffer containing 0.05% Tween20. After washing cells with PBS-T (Cell Signaling technology, Catalogue No. 9809), the images are acquired on a Li—COR Odyssey LCx at 700 and 800 nm. Percent of DMSO control is calculated with 100% signal referring to control conditions containing no compound (0.4% DMSO only) and 0% signal represented by conditions containing control compound. The % of DMSO control values are fit to a 4 parameter logistic curve, and the determined EC50 value is defined as the estimated concentration of inhibitor at the inflexion point of the fitted curve.

[2] = molecular target: T2, KIF5B-RET mutant form G810S in HEK293 cells (Homo sapiens, UniProt P07949, G810S); experiment: RET cell assay (In-Cell Western, phospho-RET Y1062), G810S; assay type: cell-based; conditions: HEK293, doxycycline-induced KIF5B-RET G810S, 1 hr compound treatment; read-out: EC50, inhibition of intracellular autophosphorylation of RET at tyrosine 1062, G810S cells
T2 construct: expressed in transfected cells; host or cells: HEK293; the other entry of the earlier key: KIF5B (P33176, Kinesin-1 heavy chain)
T2 sequence (P07949 713-1063 G810S limits assumed): T1 sequence (P07949 713-1063 limits assumed) with G98S
Description: as §1

- EC50 [1]: < 100 nM
- EC50 [2]: < 100 nM
SMILES: CC(C(=O)Nc1cc(C(C)(C)C(C)(F)F)on1)c1ccc(-c2nn(C(C)C)c(N)c2C(N)=O)cc1 (single isomer, unassigned; isomer 2) [Example 76, 5-Amino-3-[4-(1-[[5-(3,3-difluoro-2-methylbutan-2-yl)-1,2-oxazol-3-yl]carbamoyl]ethyl)phenyl]-1-isopropylpyrazole-4-carboxamide, Isomer 2]
